Where “and” joins values, the source holds several entries; their conditions need not be identical. Equal entries are not always repeated. Where two headings read alike, the source gives them in different places.
What was measured:
[1] = Tolerability (adverse events), Parts A and B; assay type: in vivo, human
From the text: Tolerability measures included adverse events (AEs), serious adverse events (SAEs), clinical laboratory findings, vital signs, and concurrent medication assessments. An AE was defined as any untoward medical occurrence in a subject or clinical investigation subject, temporally associated with the use of an investigational product, whether or not considered related to the investigational product. […] The investigator or site staff was responsible for detecting, documenting, and reporting events that met the definition of an AE or SAE.

other CYPs = conditions: human liver microsomes, up to 100 μmol/L; earlier in vitro studies, no reference given; cited from earlier work
OATP1B1 = conditions: read-out: IC50 for inhibition of OATP1B1-mediated transport; in vitro transporter assays; earlier studies, no reference given; cited from earlier work
hemoglobin levels = tested on: hemoglobin levels; parameters: method as in Holdstock et al. 2016a; conditions: ref Holdstock et al. 2016a, cited from earlier work
[2] = Part A clinical DDI: plasma pharmacokinetics of pioglitazone and rosuvastatin with or without 100 mg daprodustat; conditions: both, human, in vivo; for half-life: median elimination half-life, alone
Procedure: • Part A was an open‐label, randomized, single oral dose, two‐way cross‐over design that assessed the effects of a single, oral dose of 100 mg daprodustat on the pharmacokinetics of a single, oral dose of 15 mg pioglitazone and a single, oral dose of 10 mg rosuvastatin administered as a cocktail in healthy male and female subjects; • Part B was an open‐label, single sequence, two‐way cross‐over design to assess the effect of steady‐state trimethoprim (200 mg administered orally twice daily for 3 days) on the pharmacokinetics of a single, oral dose of 25 mg daprodustat in healthy, adult male and female subjects.
For Part A, for each of the two treatment periods, subjects remained in the Unit until 48 h postdosing, and were discharged following the last postdose assessment, if no clinically significant abnormalities were noted. Treatment periods were separated by at least a 7‐day washout. […]
Plasma analysis was performed under the management of Bioanalytical Science and Toxicokinetics, Drug Metabolism and Pharmacokinetics (DMPK), and GlaxoSmithKline (GSK). […] Samples were shipped frozen to PPD (Middleton, WI) where plasma samples were analyzed for rosuvastatin, pioglitazone, or daprodustat and predominant metabolites (GSK2391220 (M2), GSK2531403 (M3), GSK2487818 (M4), GSK2506102 (M5), GSK2531398 (M6), and GSK2531401 (M13)).
Pharmacokinetic analysis was performed using Phoenix WinNonLin® 6.3 (A Certara Company, Princeton, N.J). Pharmacokinetic parameters were determined from concentration–time data for pioglitazone, rosuvastatin, daprodustat, and predominant metabolites of daprodustat using standard noncompartmental methods.
Following loge transformation, AUC0‐∞ [defaulting to AUC0‐t if AUC0‐∞ could not be consistently determined] and C max of pioglitazone and rosuvastatin (for Part A) or daprodustat and six predominant metabolites (for Part B) were separately analyzed using a mixed‐effects model with fixed‐effect terms for treatment and period, and subject as a random effect in the model. […]

[3] = coadministration of gemfibrozil, strong CYP2C8 inhibitor; ref Johnson et al. 2013; cited from earlier work
CYP2C8 = conditions: read-out: IC50 for inhibition of CYP2C8; human liver microsomes; earlier in vitro studies, no reference given; cited from earlier work
[4] = Part B clinical DDI: plasma pharmacokinetics of daprodustat and predominant metabolites with or without steady-state trimethoprim; assay type: in vivo, human; conditions: for AUC(0-t) / AUC(0-inf) / Cmax: geometric LS mean (%CV)
Procedure: For Part B, all subjects were administered daprodustat on Day 1 with pharmacokinetic blood sampling over the next 48 h. Starting the morning of Day 3, all subjects were administered 200‐mg trimethoprim twice‐daily for 3 days (i.e., through Day 5). On Day 6 subjects were administered concomitantly daprodustat with 200 mg trimethoprim in the morning, with pharmacokinetic blood sampling occurring over the next 48 h. Trimethoprim continued to be administered at 12 h postdosing on Day 6, and twice daily on Day 7.
Blood samples for PK analyses were collected on Day 1 and Day 6 predose and at 0.25, 0.5, 1, 2, 3, 4, 5, 6, 8, 12, 18, 24, and 48 h postdose.
No formal hypothesis was tested in this study.

[5] = parameters: method as in Deng et al. 2005; conditions: pioglitazone with gemfibrozil, strong CYP2C8 inhibitor; ref Deng et al. 2005; cited from earlier work
[6] = Part B, Regimen C (n = 20) 25 mg daprodustat, Regimen D (n = 19) 25 mg daprodustat + 200 mg trimethoprim BID for 5 days
[7] = 25 mg daprodustat + trimethoprim vs daprodustat alone
[8] = test:reference (with vs without trimethoprim)

## O=C(O)CNC(=O)C1C(=O)N(C2CCCCC2)C(=O)N(C2CCCCC2)C1=O [daprodustat]
[1]; [6]
  Aphthous stomatitis: 0 n (%)
  Catheter site phlebitis: 0 n (%)
  Constipation: 1 (5) n (%)
  Diarrhea: 2 (10%) n (%) and 2 (10) n (%)
  Nausea: 0 n (%)
  Rhinitis: 0 n (%)
  Tongue coated: 0 n (%)
  Vomiting: 1 (5) n (%)
  Vulvovaginal mycotic infection: 0 n (%)
[1]; per regimen, Parts A and B, healthy subjects
  proportion of subjects reporting AEs: 10%
Other CYPs
  inhibition of other CYPs: no inhibition was observed
OATP1B1
  IC50: 6 µM
Hemoglobin levels; HDD subjects switched from ESA treatment, 5 mg once daily, 4-week treatment period
  mean hemoglobin levels: maintained mean hemoglobin levels
Hemoglobin levels; NDD patients naïve to ESA treatment, oral 5 mg once daily, over 4 weeks
  mean increase in hemoglobin: 1 gm/dL
[2]; 100 mg
  Cmax: ~4.5 µM
[3]
  fold increase in daprodustat AUC with gemfibrozil: 19 fold
  fold increase in daprodustat Cmax with gemfibrozil: 4 fold
CYP2C8
  IC50: 21 µM
[4]; [7]
  fold increase in AUC with trimethoprim coadministration: 1.48 fold
  fold increase in Cmax with trimethoprim coadministration: 1.28 fold
  increase in plasma AUC with trimethoprim coadministration: 48%
  increase in plasma Cmax with trimethoprim coadministration: 28%
[4]; both sexes, human, oral, reference: 25 mg daprodustat alone, plasma, read-out: AUC0-t, Reference
  AUC(0-t): 936 ng·h/mL
[4]; both sexes, human, oral, reference: 25 mg daprodustat alone, plasma, read-out: AUC0-∞, Reference
  AUC(0-inf): 937 ng·h/mL
[4]; both sexes, human, oral, reference: 25 mg daprodustat alone, plasma, read-out: Cmax, Reference
  Cmax: 442 ng/mL
[4]; both sexes, human, oral, test: two 100 mg trimethoprim tablets (steady state) + 25 mg daprodustat, plasma, read-out: AUC0-t, Test
  AUC(0-t): 1370 ng·h/mL
[4]; both sexes, human, oral, test: two 100 mg trimethoprim tablets (steady state) + 25 mg daprodustat, plasma, read-out: AUC0-∞, Test
  AUC(0-inf): 1370 ng·h/mL
[4]; both sexes, human, oral, test: two 100 mg trimethoprim tablets (steady state) + 25 mg daprodustat, plasma, read-out: Cmax, Test
  Cmax: 560 ng/mL
[4]; both sexes, human, plasma, oral, 25 mg daprodustat alone, read-out: median elimination half-life, alone (converted)
  half-life: 184 min
[4]; both treatment periods (with and without steady-state trimethoprim)
  time of observed peak plasma levels: 1 h
[4]; [8]
  AUC0-t, Geometric LS mean ratio (90% CI): 1.48 (1.39, 1.59)
  AUC0-∞, Geometric LS mean ratio (90% CI): 1.48 (1.39, 1.59)
  Cmax, Geometric LS mean ratio (90% CI): 1.28 (1.09, 1.51)

## CCc1ccc(CCOc2ccc(CC3SC(=O)NC3=O)cc2)nc1 (stereo not drawn) [pioglitazone]
[2]
  half-life: 421 min
[5]
  fold increase in AUC0-∞ with gemfibrozil: 3.4 fold

## CC(C)c1nc(N(C)S(C)(=O)=O)nc(-c2ccc(F)cc2)c1/C=C/[C@@H](O)C[C@@H](O)CC(=O)O [rosuvastatin]
[2]
  half-life: 936 min

From PMC5843756, “The drug interaction potential of daprodustat when coadministered with pioglitazone, rosuvastatin, or trimethoprim in healthy subjects” (Pharmacology Research & Perspectives, 2018)
